From patent US7786042B2, “Fluridone as an anti-inflammatory agent” (Universita' Degli Studi Di Genova, priority 2005, dated 2010)

Assays:
[1] = test system: murine macrophages RAW 264.7; assay: COX-2 expression in LPS-stimulated RAW 264.7; assay type: cell-based; conditions: exogenous ABA 10-20 μM added to fluridone-treated cultures
Protocol: Murine macrophages from the RAW 264.7 cell line were stimulated with 10 μM ABA or with 100 ng/ml lipopolysaccharide (LPS) for 6 hours, after pre-incubation with 50 μM fluridone for 3 hours.

whole blood cells = assay: LPS-induced histamine release from blood cells; assay type: cell-based, human; conditions: pre-incubation with 50 μM fluridone
Protocol: Whole blood was pre-incubated for 2 hours at 25° C. in the absence (control) or in the presence of 50 μM fluridone. Then, 100 ng/ml of lipopolysaccharide (LPS) was added to the blood at 37° C. for the time indicated. The histamine concentration in plasma was measured immunoenzymatically with a commercially available kit (IBL-Hamburg, Germany). The results are the mean ±SD from 3 experiments.

[2] = test system: laboratory animals (mice, rats, dogs, fish and birds); conditions: even at high concentrations; cited from earlier work
rats = conditions: oral administration; cited from earlier work
[3] = test system: human lymphocytes and monocytes; assay: Cell viability by Trypan blue exclusion, human cells; assay type: cell-based; conditions: fluridone 50 μM
Protocol: Inhibition of proliferation is not due to fluridone toxicity since the percentage of viable cells (excluding the dye Trypan blue) was similar in the cultures incubated with fluridone compared to controls.
A similar effect (90% inhibition) is produced by fluridone also on the LPS-induced TNF-α production in both cell types (FIGS. 7 A and B). In all these cases, no toxicity of fluridone on the cells was observed, as evaluated by the ability of excluding the dye Trypan blue.

SMILES | increase of COX-2 expression compromised by fluridone [1] | histamine release by LPS-stimulated (unfractionated) blood cells (whole blood cells) | toxic, mutagenic, teratogenic or cancerogenic effects [2] | LD50 (rats) [mg/kg] | toxicity on the cells (Trypan blue exclusion) ([3]; human monocytes) | percentage of viable cells (excluding Trypan blue) compared to controls ([3]; lymphocyte cultures)
CC1=CC(=O)CC(C)(C)[C@@]1(O)/C=C/C(C)=C\C(=O)O (racemic) [ABA, (±)-cis, trans ABA] | partly restores |  |  |  |  | 
Cn1cc(-c2ccccc2)c(=O)c(-c2cccc(C(F)(F)F)c2)c1 [Fluridone, 1-methyl-3-phenyl-5-(α,α,α-trifluoro-m-tolyl)-4-pyridone] |  | completely inhibits | absence of toxic, mutagenic, teratogenic or cancerogenic effects | > 10000 | no toxicity | similar
